Test results: patent publication US9133225B2, “Dual targeting anticancer agents” (priority 2013, dated 2015)
pIC50: −log10 of the molar value.

Assays:
PC-3 cells = experiment: MTT cytotoxicity assay, PC-3; conditions: read-out: cytotoxicity IC50; PC-3, prostate; MTT, 48 h treatment; spread in brackets
From the text: (§1) (a) Dulbecco's Modified Eagle Medium (DMEM), Dulbecco's phosphate buffered saline (DPBS), fetal bovine serum (FBS) and 0.25% trypsin/EDTA solutions were purchased from Cellgro (Manassas, Va.). Penicillin-streptomycin solutions were purchased from Mediatech (Manassas, Va.). (b) HeLa (CCL-2TM) cells, A549, A2870, A2870/CP70, MCF-7, PC-3, and MRC-5 cells were purchased from American Type Culture Collection (ATCC, Manassas, Va., USA). (c) HCT116 cells were kindly donated by Laura Trudel (MIT). HeLa, A549, MCF-7, and MRC-5 cells were cultured using DMEM supplemented with 10% FBS and 1% penicillin-streptomycin. A2870, A2870/CP70, and PC-3 cells were cultured in RPMI supplemented with 10% FBS and 1% penicillin-streptomycin. HCT116 cells were cultured in McCoy's supplemented with 10% FBS and 1% penicillin-streptomycin. All cell-culture experiments were performed in the aforementioned media in an incubator operating at 37° C. and in the presence of a humidified atmosphere containing 5.0% CO2. Cells were harvested using a 0.25% trypsin/EDTA solution.
(§2) The cytotoxicity of the compounds was assessed by means of the MTT assay (MTT=3-(4,5-dimethyl-2-thiazolyl)-2,5-diphenyl-2H-tetrazolium bromide). Typically, on day one, ˜1×10^3 cells were seeded into 96-well plates in 100 μL media per well. The last row of the plate was left empty as a control for background absorption. The cells were allowed to grow for 24 h in the incubator at 37° C. On day two, a series of drug dilutions in growth media were prepared immediately prior to cell treatment. The media in the wells of the 96 plates were replaced with 100 μL of growth media containing appropriate drug concentrations. The cells were treated for 48 h at 37° C. in the incubator. On day four, a stock solution of MTT (5 mg/mL in PBS buffer) was diluted with media so that, when 100 μL of the media was added to each well, 10 μL of MTT stock was applied. […] The optical density for each well at 550 nm was measured with a microplate reader.

MCF-7 cells = experiment: MTT cytotoxicity assay, MCF-7; conditions: read-out: cytotoxicity IC50; MCF-7, breast; MTT, 48 h treatment; spread in brackets
From the text: as §1, §2

Bcl-xL-Bax interactions = biological target: T1, Bcl-xL-Bax interactions (Homo sapiens, UniProt Q07817); experiment: Co-immunoprecipitation of Bcl-xL, probed for Bax; type: cell-based; conditions: A549 cells, respective IC50 values, 48 h
T1 construct: endogenous in cells; host or cells: A549
Protocol: (§3) α-TOS is known to disrupt Bcl-xL-Bax interactions, activate Bax, and thus mediate mitochondrial centered apoptotic cell death. Co-immunoprecipitation studies were carried out to determine whether the Pt(IV)-α-TOS conjugates could behave in a similar manner. […] Additional immunoblotting studies were carried to determine the effect of Pt(IV)(α-TOS)(OEt) treatment on transcription. […] Overall Pt(IV)(α-TOS)(OEt) was able to (1) downregulate Bcl-xL expression and (2) inhibit the interaction of Bcl-xL with Bax, a prerequisite for mitochondrial dysfunction. The former is inherent to cisplatin but not α-TOS, and the latter was inherent to α-TOS but not cisplatin.
A549 cells (5×10^5 cells) were incubated with test compound for 48 h at 37° C. […] The resultant cell lysate was treated with protein A-agarose bead slurry (50 μL) and centrifuged to remove proteins that bind non-specifically. Anti Bcl-XL antibody (Cell Signalling Technology) was added to the lysate and incubated for 2 h at room temperature. Protein A-agarose bead slurry (50 μL) was added and the mixture was incubated at 4° C. overnight. Centrifugation allowed separation of the immunocomplex, which was washed with cold RIPA buffer (3×500 μL). The immunocomplex was then suspended in SDS-PAGE loading buffer (50 μL) and incubated at 95° C. for 10 min. The solution containing the immunocomplex was isolated by centrifugation and then analysed for Bax content using the immunoblotting analysis protocol described above.

Bcl-xL = experiment: Immunoblotting analysis of Bcl-xL expression; type: cell-based; conditions: A549 cells
Protocol: as §3
A549 cells (5×10^5 cells) were incubated with test compound for 48 h at 37° C. Cells were washed with PBS, scraped into SDS-PAGE loading buffer (64 mM Tris-HCl (pH6.8)/9.6% glycerol/2% SDS/5% β-mercaptoethanol/0.01% Bromophenol Blue) and incubated at 95° C. for 10 min. Whole cell lysates were resolved by 4-20% sodium dodecylsulphate polyacylamide gel electrophoresis (SDS-PAGE; 200 V for 1 h) followed by electro transfer to polyvinylidene difluoride membrane, PVDF (350 mA for 1 h). Membranes were blocked in 5% (w/v) non-fat milk in PBST (PBS/0.1% Tween 20) and incubated with the appropriate primary antibodies (Cell Signalling Technology and Santa Cruz). After incubation with horseradish peroxidase-conjugated secondary antibodies (Cell Signalling Technology), immune complexes were detected with the ECL detection reagent (BioRad) and analysed using an Alpha Innotech ChemiImager™ 5500 fitted with a chemiluminescence filter.

T1 sequence (Q07817 whole entry): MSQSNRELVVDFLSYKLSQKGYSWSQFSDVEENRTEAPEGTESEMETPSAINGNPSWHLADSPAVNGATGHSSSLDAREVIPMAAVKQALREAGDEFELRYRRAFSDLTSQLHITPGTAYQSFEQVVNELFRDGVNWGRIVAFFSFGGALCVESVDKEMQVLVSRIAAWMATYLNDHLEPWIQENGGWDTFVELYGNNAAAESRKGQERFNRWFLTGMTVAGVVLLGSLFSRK

## CC[O][Pt]([NH2])([NH2])([Cl])([Cl])[O]C(=O)CCC(=O)Oc1c(C)c(C)c2c(c1C)CCC(C)(CCCC(C)CCCC(C)CCCC(C)C)O2 (stereo not drawn) [Pt(IV)(α-TOS)(OEt)]
PC-3 cells
  pIC50: 5.60
MCF-7 cells
  pIC50: 5.23
Bcl-xL-Bax interactions
  Bcl-xL-Bax interaction (Bax associated to the Bcl-xL immunoprecipitate): reduced Bcl-xL-Bax interactions
Bcl-xL
  Bcl-xL expression: induced a reduction in Bcl-xL expression
